Test results: US11149062B2, “HDAC inhibitors and methods of treatment using the same” (UWM Research Foundation, Inc., priority 2015, dated 2021)
Read-outs that look alike come from different tables or passages of the source.

Key:
[1] = system: DU-145 (prostate cancer); test: MTT antiproliferative assay, DU-145; type: cell-based; conditions: Homo sapiens, read-out: Antiproliferative Activity GI50, Prostate DU-145
Description: (§1) Briefly, the tumor cells (1×10^4 cells/well) were seeded in 96-well microtiter plates and incubated for 24 h at 37° C. Following incubation, the media was replaced with fresh media containing the above compounds at concentrations ranging from 1 μM to 1 pM diluted in DMSO and incubated for an additional 48 h. Drugs were run in duplicate or triplicate and control cells received fresh media with DMSO concentration equivalent to the treatment groups. […] After aspirating the culture medium, 200 μL of DMSO was added to dissolve the precipitate and the resulting solution was measured for absorbance at 570 nm with a reference wavelength of 690 nm using a microplate reader (Infinite M200 Pro TECAN).

[2] = system: HeLa (cervical cancer); test: MTT antiproliferative assay, HeLa; type: cell-based; conditions: Homo sapiens, 48 h, read-out: Antiproliferative Activity GI50, Cervical HeLa
Description: as §1

[3] = target: T1, Recombinant human HDAC3 (Homo sapiens, UniProt O15379); test: HDAC-Glo I/II assay, HDAC3; type: biochemical; conditions: Class I HDAC; compounds reduced by TCEP prior to assay
T1 construct: purchased BPS Bioscience Inc
Description: (§2) The purified compounds of all fragments and natural product derivatives were evaluated for inhibitory effects on three different classes of HDAC proteins (class I, IIa, and IIb). […] All activity was determined by using a fluorescence-based in vitro assay. Class I HDAC proteins that were evaluated were HDAC1, HDAC2, HDAC3, HDAC8, HDAC4, and HDAC6. Class IIa HDAC protein were HDAC4 and the Class IIb HDAC protein were HDAC6.
(§3) HDAC-Glo™ I/II Assay and Screening System (Promega) was used to determine the HDAC inhibitory activity. Recombinant human HDAC1, HDAC2, HDAC3, HDAC4, HDAC6 and HDAC8 were purchased from BPS Bioscience Inc. The inhibitory activities of the test compounds against recombinant HDAC were performed according to reagent suppliers' protocols.
(§4) All test compounds were firstly dissolved in DMSO to make 10 mM stock solution. A certain amount of stock solution was diluted to 1 mM by DMSO and then reduced by tris(2-carboxyethyl)phosphine hydrochloride (TCEP) in a molar ration of 1:1.5 for 20 min at ambient temperature prior to being assayed. After reduction, a series of fivefold dilutions of each reduced compound were prepared with HDAC-Glo buffer and 25 μL of each dilution was added into a well on a 96-well plate. HDAC enzymes were diluted to the desired concentrations with HDAC-Glo buffer and 25 μL of each diluted enzyme was dispensed into a well to mix with 25 μL of testing compound at room temperature for 30-60 seconds. After the reaction mixture had been incubated at room temperature for 1 hour, 50 μL of HDAC-Glo reagent was added to each reaction well and mixed up for 30-60 seconds. Finally, the plate was incubated at room temperature for an additional 30 minutes before the luminescence was measured on a Synergy HT plate reader (Bio-Tek). The luminescence intensity data were analyzed using GraphPad Prism 5 (GraphPad Software). In the absence of any test compound, the luminescence intensity (I100) in each data set was defined as 100% activity. In the absence of both of HDAC enzymes and test compound, the luminescence intensity (I0) in each data set was defined as 0% activity. The relative activity (%) in the presence of each compound was calculated according to the following equation: % activity=(I−I0)/(I100−I0), where I=the luminescence intensity if a compound is present in the reaction. Experiments were performed in triplicate and the calculated mean values were used for plotting.

[4] = system: SKOV-3 (ovarian); test: MTT antiproliferative assay, SKOV-3; type: cell-based; conditions: Homo sapiens, read-out: Antiproliferative Activity GI50, Ovarian SKOV-3
Description: as §1

[5] = 10 mg/mL cpd in 20% DMSO/saline
[6] = system: MDA-MB-231 (breast cancer); test: MTT antiproliferative assay, MDA-MB-231; type: cell-based; conditions: Homo sapiens, read-out: Antiproliferative Activity GI50, Breast MDA-MB-231
Description: as §1

[7] = target: T2, Recombinant human HDAC1 (Homo sapiens, UniProt Q13547); test: HDAC-Glo I/II assay, HDAC1; type: biochemical; conditions: for IC50: Class I HDAC, compounds reduced by TCEP prior to assay, read-out: IC50 of HDAC1; for Class I selectivity Ratio HDAC 1/HDAC8 / Class I vs. Class IIa Ratio HDAC 1/HDAC6: ratio of IC50 values
T2 construct: purchased BPS Bioscience Inc
Description: as §2, §3, §4

[8] = target: T3, Recombinant human HDAC8 (Homo sapiens, UniProt Q9BY41); test: HDAC-Glo I/II assay, HDAC8; type: biochemical; conditions: Class I HDAC; compounds reduced by TCEP prior to assay
T3 construct: purchased BPS Bioscience Inc
T3 sequence (Q9BY41 1-377): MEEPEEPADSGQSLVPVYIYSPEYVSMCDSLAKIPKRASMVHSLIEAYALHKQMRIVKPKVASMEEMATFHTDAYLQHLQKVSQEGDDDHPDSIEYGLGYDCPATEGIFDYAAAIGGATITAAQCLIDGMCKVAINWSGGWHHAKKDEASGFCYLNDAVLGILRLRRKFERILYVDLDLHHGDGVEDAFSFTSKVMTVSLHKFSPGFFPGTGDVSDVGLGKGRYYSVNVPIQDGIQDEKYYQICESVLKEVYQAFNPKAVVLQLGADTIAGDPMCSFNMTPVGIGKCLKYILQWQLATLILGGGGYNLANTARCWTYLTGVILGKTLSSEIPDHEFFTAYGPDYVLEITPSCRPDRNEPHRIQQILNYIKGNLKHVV
Description: as §2, §3, §4

[9] = system: RFX393 (renal); test: MTT antiproliferative assay, RFX393; type: cell-based; conditions: 48 h, read-out: Antiproliferative Activity GI50, Renal RFX393
Description: as §1

[10] = system: HCT-116 (colon cancer); test: MTT antiproliferative assay, HCT-116; type: cell-based; conditions: Homo sapiens, read-out: Antiproliferative Activity GI50, Colon HCT-116
Description: as §1

[11] = system: COLO-205 (colon cancer); test: MTT antiproliferative assay, COLO-205; type: cell-based; conditions: Homo sapiens, read-out: Antiproliferative Activity GI50, Colon COLO-205
Description: as §1

[12] = in vivo; conditions: BALB/c, mouse, in vivo, ip
From the text: BALB/c mice were purchased from The Jackson Laboratory (Bar Harbor, Me.) and used between 7 and 10 weeks of age. Mice were housed in a conventional animal vivarium and were given free access to food and water. All studies and procedures were approved by the Animal Care and Use Committee of the University of Wisconsin, Milwaukee.
Each animal was initially weighed using a digital scale and then intraperitoneally (IP) injected with the compounds (listed in Table 2). A single mouse was given a single IP dose of 200 mg/kg, body weight, a second mouse received a dose of 100 mg/kg and a third mouse received a single dose of 50 mg/kg. The mice were observed and weighed every other day for a period of 2 weeks. They were euthanized if they lost more than 20% of their body weight or if there were other signs of significant toxicity. […] This process was repeated until a tolerated dose was found, and the MTD value was determined.
To determine the MTD in vivo, the compounds listed above were injected intraperitoneally into BALB/c mice and morbidity and mortality were monitored over two weeks.

[13] = target: T4, Recombinant human HDAC2 (Homo sapiens, UniProt Q92769); test: HDAC-Glo I/II assay, HDAC2; type: biochemical; conditions: Class I HDAC; compounds reduced by TCEP prior to assay
T4 construct: purchased BPS Bioscience Inc
Description: as §2, §3, §4

[14] = target: T5, Recombinant human HDAC4 (Homo sapiens, UniProt P56524); test: HDAC-Glo I/II assay, HDAC4; type: biochemical; conditions: Class IIa HDAC; compounds reduced by TCEP prior to assay; read-out: IC50 of HDAC4
T5 construct: purchased BPS Bioscience Inc
Description: as §2, §3, §4

[15] = system: colon (HCT-116), cervical (HeLa), and renal (RFX393) tumor cell lines; test: MTT antiproliferative assay, all three tumor cell lines; type: cell-based; conditions: read-out: GI50 values against all three tumor cell lines
Description: as §1

[16] = HCT-116, HeLa, RFX393, summary of Table 3

T1 sequence (O15379 whole entry): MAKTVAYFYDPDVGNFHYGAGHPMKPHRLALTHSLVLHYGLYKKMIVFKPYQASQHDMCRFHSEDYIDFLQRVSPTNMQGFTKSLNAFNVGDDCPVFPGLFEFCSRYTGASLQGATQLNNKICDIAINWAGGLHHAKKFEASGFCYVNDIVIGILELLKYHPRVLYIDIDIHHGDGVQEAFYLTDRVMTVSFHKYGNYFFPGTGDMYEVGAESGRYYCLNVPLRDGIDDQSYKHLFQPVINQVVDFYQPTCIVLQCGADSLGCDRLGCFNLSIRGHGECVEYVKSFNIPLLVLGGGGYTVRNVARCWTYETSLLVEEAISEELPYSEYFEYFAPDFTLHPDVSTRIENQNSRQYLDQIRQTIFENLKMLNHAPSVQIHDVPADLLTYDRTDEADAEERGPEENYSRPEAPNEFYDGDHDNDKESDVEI
T1 sequence (Q9Y618 395-489 partner limits assumed): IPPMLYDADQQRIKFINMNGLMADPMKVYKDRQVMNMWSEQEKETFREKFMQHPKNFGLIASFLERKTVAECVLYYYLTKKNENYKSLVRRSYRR
T5 sequence (P56524 whole entry): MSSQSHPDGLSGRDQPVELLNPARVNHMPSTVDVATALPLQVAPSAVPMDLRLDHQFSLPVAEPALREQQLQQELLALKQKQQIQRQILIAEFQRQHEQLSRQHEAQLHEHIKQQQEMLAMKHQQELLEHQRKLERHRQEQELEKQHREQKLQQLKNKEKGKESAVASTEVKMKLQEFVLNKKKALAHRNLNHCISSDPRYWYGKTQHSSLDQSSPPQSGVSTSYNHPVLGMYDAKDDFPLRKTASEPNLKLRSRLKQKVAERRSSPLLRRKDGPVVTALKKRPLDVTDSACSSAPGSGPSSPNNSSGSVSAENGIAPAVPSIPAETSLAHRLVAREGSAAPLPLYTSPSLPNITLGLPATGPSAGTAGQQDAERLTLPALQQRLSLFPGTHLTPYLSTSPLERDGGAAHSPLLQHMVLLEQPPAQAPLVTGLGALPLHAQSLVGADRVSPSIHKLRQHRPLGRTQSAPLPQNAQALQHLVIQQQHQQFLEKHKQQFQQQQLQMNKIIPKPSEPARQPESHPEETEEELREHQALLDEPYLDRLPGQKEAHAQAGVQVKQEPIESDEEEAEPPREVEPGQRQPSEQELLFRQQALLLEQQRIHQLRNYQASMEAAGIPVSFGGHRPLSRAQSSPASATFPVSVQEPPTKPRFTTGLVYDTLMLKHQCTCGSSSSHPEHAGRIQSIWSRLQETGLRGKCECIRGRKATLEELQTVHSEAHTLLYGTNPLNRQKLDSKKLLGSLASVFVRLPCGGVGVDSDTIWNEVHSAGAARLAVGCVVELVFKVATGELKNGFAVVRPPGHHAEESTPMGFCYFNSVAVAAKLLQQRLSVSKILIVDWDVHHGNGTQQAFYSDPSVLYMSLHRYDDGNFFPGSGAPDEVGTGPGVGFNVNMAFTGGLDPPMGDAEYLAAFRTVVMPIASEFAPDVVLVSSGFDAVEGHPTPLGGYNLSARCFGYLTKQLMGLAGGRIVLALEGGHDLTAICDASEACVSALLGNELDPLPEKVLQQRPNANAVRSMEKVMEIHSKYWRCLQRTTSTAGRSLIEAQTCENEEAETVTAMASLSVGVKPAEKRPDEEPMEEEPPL
T4 sequence (Q92769 whole entry): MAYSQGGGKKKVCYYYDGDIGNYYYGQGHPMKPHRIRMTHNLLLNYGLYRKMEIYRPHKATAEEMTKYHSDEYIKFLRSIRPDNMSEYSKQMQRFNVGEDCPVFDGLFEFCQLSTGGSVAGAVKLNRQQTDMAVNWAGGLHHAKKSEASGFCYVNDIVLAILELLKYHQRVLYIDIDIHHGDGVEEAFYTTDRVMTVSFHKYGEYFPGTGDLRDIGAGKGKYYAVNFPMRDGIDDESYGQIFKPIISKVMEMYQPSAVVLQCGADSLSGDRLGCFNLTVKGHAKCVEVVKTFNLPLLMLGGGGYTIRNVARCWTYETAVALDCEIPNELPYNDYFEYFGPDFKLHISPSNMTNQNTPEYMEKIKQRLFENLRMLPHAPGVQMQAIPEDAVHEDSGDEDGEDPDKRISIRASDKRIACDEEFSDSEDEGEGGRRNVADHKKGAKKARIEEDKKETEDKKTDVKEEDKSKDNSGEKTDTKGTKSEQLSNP
T2 sequence (Q13547 whole entry): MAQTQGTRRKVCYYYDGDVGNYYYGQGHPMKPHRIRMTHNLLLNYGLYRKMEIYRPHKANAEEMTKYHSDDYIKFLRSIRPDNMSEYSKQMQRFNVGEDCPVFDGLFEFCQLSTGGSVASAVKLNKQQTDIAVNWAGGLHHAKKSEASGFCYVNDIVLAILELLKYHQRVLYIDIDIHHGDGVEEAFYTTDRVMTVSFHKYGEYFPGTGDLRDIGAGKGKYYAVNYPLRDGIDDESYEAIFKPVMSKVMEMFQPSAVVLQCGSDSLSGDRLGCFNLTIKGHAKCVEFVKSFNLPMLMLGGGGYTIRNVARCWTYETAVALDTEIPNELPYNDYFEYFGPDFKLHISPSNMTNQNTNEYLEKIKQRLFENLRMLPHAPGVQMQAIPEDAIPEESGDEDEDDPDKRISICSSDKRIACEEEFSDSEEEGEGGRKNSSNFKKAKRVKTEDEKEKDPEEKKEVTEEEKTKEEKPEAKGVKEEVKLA

Structure (SMILES)	GI50 ([2]; MTT)	IC50 [3]	Solubility [5]	IC50 [7]	Class I selectivity Ratio HDAC 1/HDAC8 [7]	Class I vs. Class IIa Ratio HDAC 1/HDAC6 [7]	IC50 [8]	GI50 ([9]; MTT)	GI50 ([10]; HCT-116, MTT, 48 h)	MTD at 2 weeks [12]	IC50 [13]	IC50 [14]	other results
CCC(C)[C@H]1NC(=O)[C@H]2CSSCC/C=C/[C@H](CC(=O)N[C@H](CCSC)C(=O)N2)OC(=O)C[C@@H]1OC(=O)c1ccccc1 (stereo partly shown) [TDC1]	0.225 µM	0.64 µM	Not soluble	0.0109 µM	0.00252	0.0020	3.67 µM	0.0351 µM	0.0247 µM	50 mg/kg	0.051 µM	~500 µM	GI50 ([1]; DU-145, MTT, 48 h): 0.08 µM; GI50 ([4]; SK-OV-3, MTT, 48 h): 0.03 µM; GI50 ([6]; MDA-MB-231, MTT, 48 h): 0.04 µM; GI50 ([11]; COLO 205, MTT, 48 h): 0.07 µM
CCC(C)[C@H]1NC(=O)[C@H]2CSSCC/C=C/[C@H](CC(=O)N[C@H](CCSC)C(=O)N2)OC(=O)C[C@@H]1OC(C)=O (stereo partly shown) [TDC3]	0.332 µM	0.245 µM	Not soluble	0.0027 µM	0.00006	0.0020	10 µM	0.107 µM	0.12 µM	> 200 mg/kg	0.0442 µM	40.5 µM	–
CCCC[C@H]1NC(=O)C[C@H]2/C=C/CCSSC[C@@H](NC1=O)C(=O)N[C@H](C(C)CC)[C@@H](O)CC(=O)O2 (stereo partly shown) [TDP-B, Thailandepsin B, reference compound]	0.0021 µM	0.0482 µM	Not soluble	0.0022 µM	0.00026	0.0034	10.9 µM	0.0022 µM	0.002 µM	6.25 mg/kg	0.0256 µM	27.9 µM	–
CCC(C)[C@H]1NC(=O)[C@H]2CSSCC/C=C/[C@H](CC(=O)N[C@H](CCSC)C(=O)N2)OC(=O)C[C@@H]1O (stereo partly shown) [TDP-A, Thailandepsin A, reference compound]	0.00036 µM	0.0077 µM	Not soluble	0.0024 µM	0.00065	0.0088	8.44 µM	0.00047 µM	0.00093 µM	6.25 mg/kg	0.0081 µM	20.5 µM	GI50 ([1]; DU-145, MTT, 48 h): 0.001 µM; GI50 ([4]; SK-OV-3, MTT, 48 h): 0.002 µM; GI50 ([6]; MDA-MB-231, MTT, 48 h): 0.003 µM; GI50 ([11]; COLO 205, MTT, 48 h): 0.0035 µM
CCC(C)C(NC(=O)CC(O)/C=C/CCS)C(=O)O (stereo not shown) [TDF4]	4.8 µM	0.714 µM	Mostly soluble	0.0039 µM	–	–	43.9 µM	4.1 µM	3.7 µM	> 200 mg/kg	–	> 1000 µM	GI50 [15, 16]: ≤ 5 µM
O=C(CCCCCCC(=O)Nc1ccccc1)NO [SAHA, suberoyl anilide hydroxamic acid, reference compound]	–	–	Not soluble	–	–	–	–	–	–	–	–	–	GI50 ([1]; DU-145, 48 h): 2 µM; GI50 [2]: 2.8 µM; GI50 ([4]; SK-OV-3, 48 h): 1.5 µM; GI50 ([6]; MDA-MB-231, 48 h): 1.5 µM; GI50 [9]: 2.5 µM; GI50 ([10]; HCT-116, 48 h): 2.7 µM; GI50 ([11]; COLO 205, 48 h): 0.5 µM; MTD at 2 weeks ([12]; MTD (toxicity in healthy BALB/c mice), single IP dose, observed 2 weeks): > 200 mg/kg; GI50 [15]: 2.5 to 3 µM
CCC(C)[C@H]1NC(=O)[C@H]2CSSCC/C=C/[C@H](CC(=O)N[C@H](CCSC)C(=O)N2)OC(=O)C[C@@H]1OCCC=O (stereo partly shown) [TDC2]	0.141 µM	0.701 µM	Not soluble	0.0096 µM	0.00096	0.0064	4.33 µM	0.051 µM	0.056 µM	12.5 mg/kg	0.037 µM	135 µM	–
CC(C)[C@H](NC(=O)CC(O)/C=C/CCS)C(=O)O (stereo partly shown) [TDF6]	3.6 µM	0.0416 µM	Soluble	0.0035 µM	0.00003	–	16.6 µM	3.1 µM	1.3 µM	> 200 mg/kg	0.111 µM	> 1000 µM	GI50 [15, 16]: ≤ 4 µM
